Experimental data from patent US20190119282A1, “IMIDAZOPYRIDAZINES USEFUL AS INHIBITORS OF THE PAR-2 SIGNALING PATHWAY” (Vertex Pharmaceuticals Incorporated, priority 2013, published 2019).

Experiments:
[1] = tested on: UTP-stimulated Ca2+ response in HT-29 cells; experiment: Ca FLIPR TETRA assay, ANTAGONIST mode, stimulation with 0.6 μM UTP; type: cell-based, human; settings: Homo sapiens, HT-29 cells, stimulation with 0.6 μM UTP
Method in brief: (§1)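 Inhibition of activator-evoked Ca2+ flux was recorded on FLIPR Tetra in HT-29 cells after 30 min compound exposure at r.t. A prior read checked whether compounds alone triggered Ca2+ release.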

[2] = tested on: Thrombin-stimulated Ca2+ response in HT-29 cells; experiment: Ca FLIPR TETRA assay, ANTAGONIST mode, stimulation with 1 U/mL Thrombin; type: cell-based, human; settings: Homo sapiens, HT-29 cells, stimulation with 1 U/mL Thrombin
Method in brief: as §1

[3] = molecular target: T1, PAR2 (HT-29 cells, trypsin activation) (Homo sapiens, UniProt P55085); experiment: Ca FLIPR TETRA assay, ANTAGONIST mode, stimulation with 3.1 U/mL trypsin; type: cell-based; settings: HT-29 cells, stimulation with 3.1 U/mL trypsin
T1 construct: host or cells: HT-29 cells
T1 sequence (P55085 26-397): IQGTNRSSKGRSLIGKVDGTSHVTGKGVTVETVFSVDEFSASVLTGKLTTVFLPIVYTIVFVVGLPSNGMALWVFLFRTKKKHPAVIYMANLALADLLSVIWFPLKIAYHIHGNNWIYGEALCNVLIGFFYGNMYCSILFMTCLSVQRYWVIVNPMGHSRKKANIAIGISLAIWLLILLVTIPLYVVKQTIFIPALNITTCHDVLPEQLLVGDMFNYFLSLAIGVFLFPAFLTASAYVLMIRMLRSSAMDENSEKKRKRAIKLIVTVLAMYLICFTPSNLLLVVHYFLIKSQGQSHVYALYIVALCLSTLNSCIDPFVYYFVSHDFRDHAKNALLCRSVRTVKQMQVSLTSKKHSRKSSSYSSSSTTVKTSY
Method in brief: as §1

[4] = molecular target: T2, PAR2 (HT-29 cells, SLIGKV activation) (Homo sapiens, UniProt P55085); experiment: Ca FLIPR TETRA assay, ANTAGONIST mode, stimulation with 8 μM SLIGKV; type: cell-based; settings: HT-29 cells, stimulation with 8 μM SLIGKV
T2 construct: host or cells: HT-29 cells
T2 sequence (P55085 26-397): T1 sequence (P55085 26-397)
Method in brief: as §1

SMILES	IC50 [1]	IC50 [2]	IC50 [3]	IC50 [4]	IC50 ([1]; antagonist mode)	IC50 ([2]; antagonist mode)	IC50 ([3]; antagonist mode)	IC50 ([4]; antagonist mode)
CC(C)c1cc(-c2ccc(F)cc2)nn2cc(C(=O)N3CCN(C(=O)C4(O)CCC4)C[C@H]3C)nc12 [Compound I-178]	14 µM	43 µM	8.3 µM	4.8 µM	–	–	–	–
CCC1(C)C(=O)NCCN1C(=O)c1cn2nc(-c3ccc(F)cc3)cc(C(C)C)c2n1 (stereo not drawn) [Compound I-179]	8.5 µM	6.9 µM	0.011 µM	0.003 µM	–	–	–	–
CC(C)c1cc(-c2ccc(F)cc2)nn2cc(C(=O)N3CCN(CC(C)(C)O)C(=O)C3(C)C)nc12 [Compound I-180]	18 µM	> 50 µM	0.041 µM	0.032 µM	–	–	–	–
CC(C)c1cc(-c2ccc(F)cc2)nn2cc(C(=O)N3CCN(C)C(=O)C3(C)C)nc12 [Compound I-181]	5.8 µM	10 µM	0.011 µM	0.01 µM	–	–	–	–
C[C@@H]1CN(c2cc(-c3ccc(F)cc3)nn3cc(C(=O)N4CCNC(=O)C4(C)C)nc23)C[C@H](C)O1 [Compound I-182]	–	–	–	–	1.27 µM	1.14 µM	0.0403 µM	0.0173 µM
C[C@H]1CN(c2cc(-c3ccc(F)cc3)nn3cc(C(=O)N4CCNC(=O)C4(C)C)nc23)C[C@H](C)O1 [Compound I-183]	–	–	–	–	0.81 µM	0.84 µM	0.0336 µM	0.015 µM
CC(C)(O)c1cc(-c2ccc(F)cc2)nn2cc(C(=O)N3CCNC(=O)C3(C)C)nc12 [Compound I-184, 4-[6-(4-fluorophenyl)-8-(1-hydroxy-1-methyl-ethyl)imidazo[1,2-b]pyridazine-2-carbonyl]-3,3-dimethyl-piperazin-2-one]	–	–	–	–	1.95 µM	1.45 µM	0.182 µM	0.125 µM
C[C@@H]1CN(c2cc(-c3ccc(F)cc3)nn3cc(C(=O)N4CCN(C(=O)C(C)(C)O)CC4(C)C)nc23)C[C@H](C)O1 [Compound I-185]	–	–	–	–	> 5 µM	> 5 µM	0.157 µM	0.117 µM
CC(C)[C@@H](O)C(=O)N1CCN(C(=O)c2cn3nc(-c4ccc(F)cc4)cc(N4C[C@@H](C)O[C@@H](C)C4)c3n2)C(C)(C)C1 [Compound I-186]	–	–	–	–	1.8 µM	1.5 µM	0.0387 µM	0.0277 µM
CC(C)c1cc(-c2ccc(F)cc2)nn2cc(C(=O)N3C[C@H](C)OCC3(C)C)nc12 [Compound I-187]	–	–	–	–	33 µM	> 50 µM	0.0525 µM	0.0625 µM
CN1CCN(C(=O)c2cn3nc(-c4ccc(F)cc4)cc(C(C)(C)C)c3n2)C(C)(C)C1=O [Compound I-188]	–	–	–	–	3.9 µM	2.5 µM	0.004 µM	0.0018 µM
CC(C)(CO)c1cc(-c2ccc(F)cc2)nn2cc(C(=O)N3CCNC(=O)C3(C)C)nc12 [Compound I-189]	–	–	–	–	> 50 µM	> 1 µM	0.417 µM	0.4 µM
CC(C)(C)OC(=O)N1CCN(C(=O)c2cn3nc(-c4ccc(F)cc4)cc(C(C)(C)C)c3n2)C(C)(C)C1 [Compound I-190]	–	–	–	–	> 50 µM	> 50 µM	0.0048 µM	0.0042 µM
CN(C)C(=O)C(C)(C)c1cc(-c2ccc(F)cc2)nn2cc(C(=O)N3CCNC(=O)C3(C)C)nc12 [Compound I-192]	–	–	–	–	> 50 µM	> 50 µM	8.95 µM	0.575 µM
COCC(C)(C)c1cc(-c2ccc(F)cc2)nn2cc(C(=O)N3CCNC(=O)C3(C)C)nc12 [Compound I-193]	–	–	–	–	19 µM	10 µM	0.046 µM	0.0053 µM
CN(C)C(=O)CN1CCN(C(=O)c2cn3nc(-c4ccc(F)cc4)cc(C(C)(C)C)c3n2)C(C)(C)C1=O [Compound I-194]	–	–	–	–	> 1 µM	> 1 µM	0.0403 µM	0.0413 µM
CC(C)c1cc(-c2ccc(F)cc2)nn2cc(C(=O)N3CCN(C(=O)C(O)C(C)C)C[C@H]3C)nc12 (stereo partly drawn) [Compound I-195]	–	–	–	–	> 1 µM	> 1 µM	> 1 µM	0.57 µM
CC(C)c1cc(-c2ccc(F)cc2)nn2cc(C(=O)N3CCN(C(=O)[C@H](O)CC(C)(C)C)C[C@H]3C)nc12 [Compound I-196]	–	–	–	–	> 1 µM	> 1 µM	0.02 µM	0.0205 µM
